{"source": "patent US7192981B2", "about": "“3,4-dihydroxyhydrocinnamic acid derivative” (Bionutrigen Co., Ltd., priority 2005, dated 2007)", "system": "IRS-1", "assay": "Phosphorylation of IRS-1 in adipose tissue of treated diabetic mice", "assay_type": "in vivo, mouse", "details": "2 weeks of DHH105 treatment", "procedure": "Adipocytes treated with DHH105 for 2 h or insulin for 10 min were homogenized in 5 ml lysis buffer (20 mM Tris, pH 7.4, 1% SDS, 10% glycerol, 150 mM NaCl, 2 mM EDTA, 20 mM NaF, 1 mM NaVO4, 2 mM sodium pyrophosphate, protease inhibitor cocktail, and phosphatase inhibitor cocktail) with a teflon pestle (15 strokes). Homogenized adipocytes were sonicated for 3 min and solubilized for 30 min. The homogenate was centrifuged at 3,000 g for 10 min at 4° C. The protein concentration of the lysate was determined by the Bradford method. After dilution (1 μg/μl protein concentration), the lysates were incubated with anti-insulin receptor-β (IR-β) antibody (Upstate Biotech, Charlottesville, Va.) or anti-IRS-1 antibody (Upstate Biotech) overnight at 4° C. Protein A Sepharose beads (100 μl, Amersham Pharmacia Biotech) were added and the mixture was gently rocked for 2 h at 4° C. […] The membranes were washed and the immunoreactive proteins were detected with an enhanced chemoluminescence western blot detection kit (Amersham Pharmacia Biotech). To examine whether in vivo treatment of STZ-induced diabetic C57BL/6 mice or ob/ob mice with DHH105 also increases phosphorylation of IR-β, and IRS-1, fat tissue was removed from the mice after 2 weeks of DHH105 treatment and phosphorylation of IR-β and IRS-1 was measured by immunoprecipitation and western blot.", "data": [{"smiles": "O=C(CCc1ccc(O)c(O)c1)OCc1cccc2ccccc12", "note": "[DHH105, 3,4-dihydroxyhydrocinnamic acid naphthalene methyl ester]", "values": [{"measurement": "phosphorylation of IRS-1 in adipose tissue", "setting": "STZ-induced diabetic C57BL/6 mice", "result": "increased"}, {"measurement": "phosphorylation of IRS-1 in adipose tissue", "setting": "ob/ob mice", "result": "increased"}]}]}
